Values quoted from earlier work as cited in patent publication US11470860B2, “Animal feeds containing specific glycolipids” (PATHWAY INTERMEDIATES LIMITED, priority 2016, dated 2022).

Conditions: for stability versus pH: aqueous medium

Compound | stability versus pH | solubility in aqueous medium (dependence on pH)
CC(CCCCCC/C=C\CCCCCCCC(=O)O)OC1OC(CO)C(O)C(O)C1OC1OC(CO)C(O)C(O)C1O (stereo not drawn) [Acidic sophorolipids] | instability at pH higher than 7.0 | not readily soluble in aqueous medium at acidic pH but become soluble at higher pH
CC1CCCCCC/C=C\CCCCCCCC(=O)OC2C(CO)OC(OC3C(O1)OC(CO)C(O)C3O)C(O)C2O (stereo not drawn) [lactonised sophorolipids] | stable across a wider pH range | –
